The text below walks through data of US20190008154A1 (priority 2015, published 2019).

Molecules are shown by their SMILES. Several values for one entry are separate records, joined by “and”; a condition that tells them apart may be missing. Equal values may be shown once.

The test system of the assay is P[…] (PYRIOR). Also noted: species or system Pyricularia oryzae. The settings on record: in vivo.

As for `Cc1cccc2sc3nncn3c12` [TCA, 5-methyl-1,2,4-triazolo[3,4-b][1,3]benzothiazole], the “PYRIOR (% DC) Observed” value is 100% and 95% and 50.2%.
